Data published in US8648066B2 (Exelixis, Inc., priority 2009, dated 2014).

These compounds were tested against mTOR/GbL/Raptor (mTORC1) (Homo sapiens, UniProt P42345) (assay: mTOR/GbL/Raptor (mTORC1) ELISA assay). Conditions: phosphorylation of 4E-BP1; 0.2 nM mTORC1, 10 μM ATP; read-out: IC50 in this assay (mTORC1 ELISA).
Type: biochemical
Outline: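 ELISA read-out: phospho-4E-BP1 captured on Ni-chelate plates and detected with anti-phospho antibody plus HRP-anti-IgG luminescence. The kinase step ran 120 min at ambient temperature with 0.2 nM human mTORC1, 10 µM ATP, 50 nM His-4E-BP1, 10 mM MnCl2, pH 7.2 HEPES.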

| SMILES | IC50 [nM] |
| --- | --- |
| Cc1nc(N)nc(N2CCOc3ccc(-c4ccc5[nH]cnc5c4)cc3C2)c1Cc1ccc(F)cc1 [Example 651, 4-[7-(1H-benzimidazol-5-yl)-2,3-dihydro-1,4-benzoxazepin-4(5H)-yl]-5-[(4-fluorophenyl)methyl]-6-methylpyrimidin-2-amine] | ≤ 10 |
| COc1ccc(-c2ccc3c(c2)CN(c2nc(CN(C)C)nc4c2CC(C)(C)CC4)CCO3)cc1S(C)(=O)=O [Example 652, 1-(6,6-dimethyl-4-{7-[4-(methyloxy)-3-(methylsulfonyl)phenyl]-2,3-dihydro-1,4-benzoxazepin-4(5H)-yl}-5,6,7,8-tetrahydroquinazolin-2-yl)-N,N-dimethylmethanamine] | 250 to 1000 |
| CCCc1c(C)nc(CN(C)C)nc1N1CCOc2ccc(-c3ccc4nc(C)[nH]c4c3)cc2C1 [Example 653, N,N-dimethyl-1-{4-methyl-6-[7-(2-methyl-1H-benzimidazol-6-yl)-2,3-dihydro-1,4-benzoxazepin-4(5H)-yl]-5-propylpyrimidin-2-yl}methanamine] | 250 to 1000 |
| C=CCc1c(C)nc(CN(C)C)nc1N1CCOc2ccc(-c3ccc4nc(C)[nH]c4c3)cc2C1 [Example 654, N,N-dimethyl-1-{4-methyl-6-[7-(2-methyl-1H-benzimidazol-6-yl)-2,3-dihydro-1,4-benzoxazepin-4(5H)-yl]-5-prop-2-en-1-ylpyrimidin-2-yl}methanamine] | 50 to 250 |
| Cc1nc2cc(-c3ccc4c(c3)CN(c3nc(CN(C)C)nc(C)c3CC(C)C)CCO4)ccc2[nH]1 [Example 655, N,N-dimethyl-1-{4-methyl-6-[7-(2-methyl-1H-benzimidazol-5-yl)-2,3-dihydro-1,4-benzoxazepin-4(5H)-yl]-5-(2-methylpropyl)pyrimidin-2-yl}methanamine] | 250 to 1000 |
| COc1ccc(-c2ccc3c(c2)CN(c2nc(CN(C)C)nc(C)c2C(C)C)CCO3)cc1NS(C)(=O)=O [Example 656, N-[5-(4-{2-[(dimethylamino)methyl]-6-methyl-5-(1-methylethyl)pyrimidin-4-yl}-2,3,4,5-tetrahydro-1,4-benzoxazepin-7-yl)-2-(methyloxy)phenyl]methane-sulfonamide] | 250 to 1000 |
| CCCc1c(C)nc(CN(C)C)nc1N1CCOc2ccc(-c3cnc4sc(N)nc4c3)cc2C1 [Example 657, 6-(4-{2-[(dimethylamino)methyl]-6-methyl-5-propylpyrimidin-4-yl}-2,3,4,5-tetrahydro-1,4-benzoxazepin-7-yl)[1,3]thiazolo[5,4-b]pyridin-2-amine] | 50 to 250 |
| COc1ccc2c(N3CCOc4ccc(-c5ccc6[nH]cnc6c5)cc4C3)nc(CN(C)C)nc2c1 [Example 658, 1-{4-[7-(1H-benzimidazol-5-yl)-2,3-dihydro-1,4-benzoxazepin-4(5H)-yl]-7-(methyloxy)quinazolin-2-yl}-N,N-dimethylmethanamine] | ≥ 2000 |
| COc1ccc2c(N3CCOc4ccc(-c5ccc6[nH]c(C)nc6c5)cc4C3)nc(CN(C)C)nc2c1 [Example 659, N,N-dimethyl-1-{4-[7-(2-methyl-1H-benzimidazol-5-yl)-2,3-dihydro-1,4-benzxazepin-4(5H)-yl]-7-(methyloxy)quinazolin-2-yl}methanamine] | 250 to 1000 |
| COc1ccc2c(N3CCOc4ccc(-c5cnc6sc(N)nc6c5)cc4C3)nc(C)nc2c1 [Example 661, 6-{4-[2-methyl-7-(methyloxy)quinazolin-4-yl]-2,3,4,5-tetrahydro-1,4-benzoxazepin-7-yl}[1,3]thiazolo[5,4-b]pyridin-2-amine] | 250 to 1000 |
| CCc1c(C)nc(CN(C)C)nc1N1CCOc2ccc(-c3cnc4sc(N)nc4c3)cc2C1 [Example 662, 6-(4-{2-[(dimethylamino)methyl]-5-ethyl-6-methylpyrimidin-4-yl}-2,3,4,5-tetrahydro-1,4-benzoxazepin-7-yl)[1,3]thiazolo[5,4-b]pyridin-2-amine] | 50 to 250 |
| Cc1nc(CN(C)C)nc(N2CCOc3ccc(-c4cnc5sc(N)nc5c4)cc3C2)c1CC1CC1 [Example 663, 6-(4-{5-(cyclopropylmethyl)-2-[(dimethylamino)methyl]-6-methylpyrimidin-4-yl}-2,3,4,5-tetrahydro-1,4-benzoxazepin-7-yl)[1,3]thiazolo[5,4-b]pyridin-2-amine] | 50 to 250 |

The remaining lines, values ahead:

| IC50 [nM] | SMILES |
| --- | --- |
| 250 to 1000 | COCCc1c(C)nc(CN(C)C)nc1N1CCOc2ccc(-c3ccc4nc(C)[nH]c4c3)cc2C1 [Example 664, N,N-dimethyl-1-{4-methyl-6-[7-(2-methyl-1H-benzimidazol-6-yl)-2,3-dihydro-1,4-benzoxazepin-4(5H)-yl]-5-[2-(methyloxy)ethyl]pyrimidin-2-yl}methanamine] |
| 10 to 50 | Cc1nc(CN(C)C)nc(N2CCOc3ccc(-c4cnc5sc(N)nc5c4)cc3C2)c1CC(C)C [Example 665, 6-(4-{2-[(dimethylamino)methyl]-6-methyl-5-(2-methylpropyl)pyrimidin-4-yl}-2,3,4,5-tetrahydro-1,4-benzoxazepin-7-yl)[1,3]thiazolo[5,4-b]pyridin-2-amine] |
| ≥ 2000 | Cc1nc2cc(-c3ccc4c(c3)CN(c3nc(CN(C)C)nc(C)c3Br)CCO4)ccc2[nH]1 [Example 666, 1-{5-bromo-4-methyl-6-[7-(2-methyl-1H-benzimidazol-5-yl)-2,3-dihydro-1,4-benzoxazepin-4(5H)-yl]pyrimidin-2-yl}-N,N-dimethylmethanamine] |
| 50 to 250 | COCCc1c(C)nc(CN(C)C)nc1N1CCOc2ccc(-c3cnc4sc(N)nc4c3)cc2C1 [Example 667, 6-(4-{2-[(dimethylamino)methyl]-6-methyl-5-[2-(methyloxy)ethyl]pyrimidin-4-yl}-2,3,4,5-tetrahydro-1,4-benzoxazepin-7-yl)[1,3]thiazolo[5,4-b]pyridin-2-amine] |
| ≤ 10 | Cc1nc2cc(-c3ccc4c(c3)CN(c3nc(C(C)N)nc5c3CC(C)(C)CC5)CCO4)ccc2[nH]1 (stereo not drawn) [Example 668, 1-{6,6-dimethyl-4-[7-(2-methyl-1H-benzimidazol-5-yl)-2,3-dihydro-1,4-benzoxazepin-4(5H)-yl]-5,6,7,8-tetrahydroquinazolin-2-yl}ethanamine] |
| ≤ 10 | Cc1nc2c(c(N3CCOc4ccc(-c5cnc6sc(N)nc6c5)cc4C3)n1)CC(C)(C)CC2 [Example 669, 6-[4-(2,6,6-trimethyl-5,6,7,8-tetrahydroquinazolin-4-yl)-2,3,4,5-tetrahydro-1,4-benzoxazepin-7-yl][1,3]thiazolo[5,4-b]pyridin-2-amine] |
| 10 to 50 | C=CCc1c(C)nc(CN(C)C)nc1N1CCOc2ccc(-c3cnc4sc(N)nc4c3)cc2C1 [Example 670, 6-(4-{2-[(dimethylamino)methyl]-6-methyl-5-prop-2-en-1-ylpyrimidin-4-yl}-2,3,4,5-tetrahyhdro-1,4-benzoxazepin-7-yl)[1,3]thiazolo[5,4-b]pyridin-2-amine] |
| 250 to 1000 | Cc1nc(CN(C)C)nc(N2CCOc3ccc(-c4cnc5sc(N)nc5c4)cc3C2)c1C [Example 671, 6-(4-{2-[(dimethylamino)methyl]-5,6-dimethylpyrimidin-4-yl}-2,3,4,5-tetrahydro-1,4-benzoxazepin-7-yl)[1,3]thiazolo[5,4-b]pyridin-2-amine] |
| ≥ 2000 | Cc1nc2ccc(-c3ccc4c(c3)CN(c3nc(CN(C)C)nc(C)c3C)CCO4)cc2[nH]1 [Example 672, 1-{4,5-dimethyl-6-[7-(2-methyl-1H-benzimidazol-6-yl)-2,3-dihydro-1,4-benzoxazepin-4(5H)-yl]pyrimidin-2-yl}-N,N-dimethylmethanamine] |
